Source: patent publication US20080145499A1, “Method for treating fruit or vegetables with phosphorous ions and corresponding compositions” (priority 2006, published 2008)
“And” between values parts separate entries of the source, which are not always exact repeats. Equal values may be shown once. Read-outs that look alike come from different tables or passages of the source.

Legend:
P. expansum = test: Natural P. expansum infections in organic Elstar apples; assay type: in vivo
Text: 2—In vivo Study of the Activity of Phosphonic Acid (Kphos) on P. expansum Infections in Apples

[1] = tested on: strain of Penicillium digitatum resistant to imazalil; test: Valencia oranges inoculated with Penicillium digitatum resistant to imazalil; assay type: in vivo; conditions: 52° C., 2 minutes
Protocol: Valencia oranges inoculated with a strain of Penicillium digitatum resistant to imazalil were treated at 52° C. and were in contact for 2 minutes with: • 300 ppm imazalil; • 3,000 ppm potassium phosphite • the two products mixed in proportions of 300 ppm imazalil and 3,000 ppm potassium phosphite.

P. Digitatum [2] = test: Navel oranges damaged and inoculated with P. digitatum, PA with Bioxeda and thermotherapy; assay type: in vivo; conditions: 18 days, 48° C. 2 min
Protocol: 3—Efficacy of PA and Thermotherapy on P. digitatum Infections in Oranges
In this experiment, the oranges were damaged then inoculated with P. Digitatum (500,000 sp/mL) and treated 15 hours later; they were stored at 5° C.

P. Digitatum [3] = test: Natural P. digitatum infections in Navel oranges, comparison with three fungicides; assay type: in vivo; conditions: Thermotherapy + phosphonic acid 2,000 ppm; SPC 3 days at ambient temperature
Text: 4—Efficacy of PA on P. digitatum Infections in Oranges. Comparison with a Mixture of Three Fungicides. All Treatments Were Combined with Thermotherapy

P. Digitatum [4] = tested on: P. Digitatum
Protocol: 5—Efficacy of PA on Natural P. digitatum Infections in Oranges Combined with Thermotherapy
(§1) A new experiment which took place under conditions very similar to those in real life was carried out: natural infections, storage in cold conditions, simulation of storage periods (SPC).

P. expansum spores = tested on: P. expansum spores
Text: 1—In vitro Study of the Activity of Phosphonic Acid on P. expansum

oranges = conditions: PA up to 4,000 ppm, with thermotherapy
Protocol: as §1

Penicillium digitatum = test: Washington oranges inoculated with Penicillium digitatum, eugenol/potassium phosphite; assay type: in vivo
Protocol: Washington oranges inoculated with Penicillium digitatum came into contact with a eugenol/potassium phosphite solution containing 1,100 ppm of eugenol and 1,600 ppm of potassium phosphite for 2 minutes at 38° C. and 48° C. The treated fruit was kept at 7° C. and then examined after 9 and 18 days. The fruit was compared with fruit treated with only eugenol in the same conditions and with inoculated fruits that had not been treated.

[5] = 3,000 ppm potassium phosphite, tests 1-4

Molecule: N#Cc1c[nH]cc1-c1cccc2c1OC(F)(F)O2 [Fluidoxonil]
- % apples with symptoms (P. expansum; 200 ppm, 2001-2002, 90 days): 1.1%
- % apples with symptoms (P. expansum; 200 ppm, 2001-2002, 180 days): 4.9%
- % apples with symptoms (P. expansum; 200 ppm, 2002-2003, 90 days): 4.0%
- % apples with symptoms (P. expansum; 200 ppm, 2002-2003, 180 days): 7.0%

Molecule: C=CCOC(Cn1ccnc1)c1ccc(Cl)cc1Cl (stereo not shown) [Imazalil, imazalil, reference compound]
- Average % of decayed fruit ([1]; 300 ppm imazalil): 42.5%

Molecule: O=[PH](O)O [PA, Phosphonic acid]
- rate of decay, times lower in the presence of PA (P. Digitatum [2]; Bioxeda + PA versus Bioxeda): 2.3 times
- Oranges with symptoms (P. Digitatum [2]; eugenol 1.8 g/L + PA 1,000 ppm (Kphos), stored at 5° C.): 26%
- % apples with symptoms (P. expansum; 1,000 ppm - 50° C. 2 min, 2001-2002, 90 days): 0.0%
- % apples with symptoms (P. expansum; 1,000 ppm - 50° C. 2 min, 2001-2002, 180 days): 4.7%
- % apples with symptoms (P. expansum; 1,000 ppm - 50° C. 2 min, 2002-2003, 90 days): 0.0%
- % apples with symptoms (P. expansum; 1,000 ppm - 50° C. 2 min, 2002-2003, 180 days): 6.3%
- % apples with symptoms (P. expansum; 1,000 ppm, 2001-2002, 90 days after treatment, 2° C.): 3.1%
- % apples with symptoms (P. expansum; 1,000 ppm, 2001-2002, 180 days after treatment, 2° C.): 13.1%
- % apples with symptoms (P. expansum; 1,000 ppm, 2002-2003, 90 days after treatment, 2° C.): 4.9%
- % apples with symptoms (P. expansum; 1,000 ppm, 2002-2003, 180 days after treatment, 2° C.): 11.1%
- activity in vivo (P. expansum; PA at ambient temperature on P. expansum in apples): ~0
- Oranges with symptoms 12 D 5 0C = 3 D SPC (1) (P. Digitatum [3]): 0.5
- % oranges with symptoms 15 D 5° C. + 5 D SPC (P. Digitatum [4]; 2,000 ppm, no thermotherapy): 6.0%
- efficacy (P. Digitatum [4]; 4,000 ppm combined with thermotherapy): 73.5%
- % oranges with symptoms 15 D 5° C. + 5 D SPC (P. Digitatum [4]; 4,000 ppm, no thermotherapy): 5.1%
- % oranges with symptoms 15 D 5° C. + 5 D SPC (P. Digitatum [4]; Thermotherapy (50° C. 3 min) + 2,000 ppm): 4.0%
- % oranges with symptoms 15 D 5° C. + 5 D SPC (P. Digitatum [4]; Thermotherapy (50° C. 3 min) + 4,000 ppm): 2.7%
- Germinated spores (P. expansum spores; 1,000 ppm (Kphos), 22° C., 24 hours): 27
- Germinated spores (P. expansum spores; 1,000 ppm (Kphos), 22° C., 48 hours): 34
- Germinated spores (P. expansum spores; 1,000 ppm (Kphos), 50° 2 min, 24 hours): 0
- Germinated spores (P. expansum spores; 1,000 ppm (Kphos), 50° 2 min, 48 hours): 21
- Germinated spores (P. expansum spores; 4,000 ppm (Kphos), 22° C., 24 hours): 11
- Germinated spores (P. expansum spores; 4,000 ppm (Kphos), 22° C., 48 hours): 11
- Germinated spores (P. expansum spores; 4,000 ppm (Kphos), 50° 2 min, 24 hours): 0
- Germinated spores (P. expansum spores; 4,000 ppm (Kphos), 50° 2 min, 48 hours): 0
- activity of PA (P. expansum spores; ambient temperature, even at 4,000 ppm): partial
- phytotoxicity (oranges): No phytotoxicity

Molecule: Cc1cc(C)nc(Nc2ccccc2)n1 [Pyrimethanil]
- % apples with symptoms (P. expansum; 250 ppm, 2001-2002, 90 days): 4.1%
- % apples with symptoms (P. expansum; 250 ppm, 2001-2002, 180 days): 16.2%
- % apples with symptoms (P. expansum; 250 ppm, 2002-2003, 90 days): 4.0%
- % apples with symptoms (P. expansum; 250 ppm, 2002-2003, 180 days): 19.0%
- % apples with symptoms (P. expansum; 500 ppm, 2001-2002, 90 days): 3.2%
- % apples with symptoms (P. expansum; 500 ppm, 2001-2002, 180 days): 21.3%
- % apples with symptoms (P. expansum; 500 ppm, 2002-2003, 90 days): 0.0%
- % apples with symptoms (P. expansum; 500 ppm, 2002-2003, 180 days): 14.0%

Molecule: C=CCc1ccc(O)c(OC)c1 [eugenol, reference compound]
- percentages of decayed fruit (Penicillium digitatum; eugenol 1,100 ppm, 2 minutes at 38° C., kept at 7° C., after 9 days): 12%
- percentages of decayed fruit (Penicillium digitatum; eugenol 1,100 ppm, 2 minutes at 38° C., kept at 7° C., after 18 days): 73%
- percentages of decayed fruit (Penicillium digitatum; eugenol 1,100 ppm, 2 minutes at 48° C., kept at 7° C., after 9 days): 4%
- percentages of decayed fruit (Penicillium digitatum; eugenol 1,100 ppm, 2 minutes at 48° C., kept at 7° C., after 18 days): 60%

Molecule: potassium phosphite
- percentages of decayed fruit (Penicillium digitatum; potassium phosphite, 38° C., after 9 days): 14%
- percentages of decayed fruit (Penicillium digitatum; potassium phosphite, 38° C., after 18 days): 76%
- percentages of decayed fruit (Penicillium digitatum; potassium phosphite, 48° C., after 9 days): 3%
- percentages of decayed fruit (Penicillium digitatum; potassium phosphite, 48° C., after 18 days): 44%
- Average % of decayed fruit ([1]; 3,000 ppm potassium phosphite): 42.5%
- % of decayed fruit [1, 5]: 50% and 60% and 30%
- Number of fruit decayed [1, 5]: 5 and 6 and 3
- Number of fruit unaffected [1, 5]: 5 and 4 and 7
